pIC50: −log10 of the molar value.
Columns and labels:
[1] = tested on: Malme-3M; test: Growth inhibition of human MALME-3M cells assessed as cell growth at 10 uM incubated for 48 hrs by sulforhodamine B assay relative to control; type: functional; conditions: read-out: Activity
[2] = tested on: MCF7; test: Growth inhibition of human MCF7 cells assessed as cell growth at 10 uM incubated for 48 hrs by sulforhodamine B assay relative to control; type: functional; conditions: MCF7, 48 h, read-out: Activity
[3] = tested on: SK-MEL-28; test: Growth inhibition of human SK-MEL-28 cells assessed as cell growth at 10 uM incubated for 48 hrs by sulforhodamine B assay relative to control; type: functional; conditions: SK-MEL-28, 48 h, read-out: Activity
[4] = tested on: DU-145; test: Growth inhibition of human DU145 cells assessed as cell growth at 100 uM incubated for 48 hrs by sulforhodamine B assay relative to control; type: functional; conditions: DU-145, 48 h, read-out: Activity
[5] = tested on: SN12C; test: Growth inhibition of human SN12C cells assessed as cell growth at 10 uM incubated for 48 hrs by sulforhodamine B assay relative to control; type: functional; conditions: read-out: Activity
[6] = tested on: 786-0; test: Growth inhibition of human 786-0 cells assessed as cell growth at 10 uM incubated for 48 hrs by sulforhodamine B assay relative to control; type: functional; conditions: 786-0, 48 h, read-out: Activity
[7] = tested on: U-251; test: Growth inhibition of human U251 cells assessed as cell growth at 0.1 uM incubated for 48 hrs by sulforhodamine B assay relative to control; type: functional; conditions: U-251, 48 h, read-out: Activity
[8] = tested on: KM12; test: Growth inhibition of human KM12 cells assessed as cell growth at 10 uM incubated for 48 hrs by sulforhodamine B assay relative to control; type: functional; conditions: KM12, 48 h, read-out: Activity
[9] = tested on: SF-268; test: Growth inhibition of human SF268 cells assessed as cell growth at 10 uM incubated for 48 hrs by sulforhodamine B assay relative to control; type: functional; conditions: SF-268, 48 h, read-out: Activity
[10] = tested on: SW-620; test: Growth inhibition of human SW620 cells assessed as cell growth at 10 uM incubated for 48 hrs by sulforhodamine B assay relative to control; type: functional; conditions: SW-620, 48 h, read-out: Activity
[11] = tested on: Hs-578T; test: Growth inhibition of human Hs578T cells assessed as cell growth at 10 uM incubated for 48 hrs by sulforhodamine B assay relative to control; type: functional; conditions: read-out: Activity
[12] = tested on: SNB-19; test: Growth inhibition of human SNB19 cells assessed as cell growth at 1 uM incubated for 48 hrs by sulforhodamine B assay relative to control; type: functional; conditions: SNB-19, 48 h, read-out: Activity
[13] = tested on: ACHN; test: Growth inhibition of human ACHN cells assessed as cell growth at 10 uM incubated for 48 hrs by sulforhodamine B assay relative to control; type: functional; conditions: read-out: Activity
[14] = tested on: A549; test: Growth inhibition of human A549/ATCC cells assessed as cell growth at 10 uM incubated for 48 hrs by sulforhodamine B assay relative to control; type: functional; conditions: A549, 48 h, read-out: Activity
[15] = tested on: LOX IMVI; test: Growth inhibition of human LOXIMVI cells incubated for 48 hrs by sulforhodamine B assay; type: functional
[16] = tested on: SF-539; test: Growth inhibition of human SF539 cells assessed as cell growth at 1 uM incubated for 48 hrs by sulforhodamine B assay relative to control; type: functional; conditions: SF-539, 48 h, read-out: Activity
[17] = tested on: RXF 393; test: Growth inhibition of human RXF393 cells assessed as cell growth at 10 uM incubated for 48 hrs by sulforhodamine B assay relative to control; type: functional; conditions: RXF 393, 48 h, read-out: Activity
[18] = tested on: HOP-62; test: Growth inhibition of human HOP62 cells incubated for 48 hrs by sulforhodamine B assay; type: functional, cell-based; conditions: HOP-62, 48 h
[19] = tested on: SF-539; test: Growth inhibition of human SF539 cells assessed as cell growth at 0.01 uM incubated for 48 hrs by sulforhodamine B assay relative to control; type: functional; conditions: SF-539, 48 h, read-out: Activity
[20] = tested on: NCI-H23; test: Growth inhibition of human NCI-H23 cells assessed as cell growth at 10 uM incubated for 48 hrs by sulforhodamine B assay relative to control; type: functional; conditions: NCI-H23, 48 h, read-out: Activity
[21] = tested on: A498; test: Growth inhibition of human A498 cells assessed as cell growth at 10 uM incubated for 48 hrs by sulforhodamine B assay relative to control; type: functional; conditions: A498, 48 h, read-out: Activity
[22] = tested on: HL-60(TB); test: Growth inhibition of human HL-60(TB) cells assessed as cell growth at 10 uM incubated for 48 hrs by sulforhodamine B assay relative to control; type: functional; conditions: HL-60, 48 h, read-out: Activity
[23] = tested on: OVCAR-3; test: Growth inhibition of human OVCAR3 cells assessed as cell growth at 10 uM incubated for 48 hrs by sulforhodamine B assay relative to control; type: functional; conditions: OVCAR-3, 48 h, read-out: Activity
[24] = tested on: BT-549; test: Growth inhibition of human BT549 cells assessed as cell growth at 10 uM incubated for 48 hrs by sulforhodamine B assay relative to control; type: functional; conditions: BT-549, 48 h, read-out: Activity
[25] = tested on: M14; test: Growth inhibition of human M14 cells assessed as cell growth at 10 uM incubated for 48 hrs by sulforhodamine B assay relative to control; type: functional; conditions: M14, 48 h, read-out: Activity
[26] = tested on: RPMI-8226; test: Growth inhibition of human RPMI8226 cells incubated for 48 hrs by sulforhodamine B assay; type: functional, cell-based; conditions: RPMI-8226, 48 h
[27] = tested on: COLO 205; test: Growth inhibition of human COLO205 cells assessed as cell growth at 10 uM incubated for 48 hrs by sulforhodamine B assay relative to control; type: functional; conditions: COLO 205, 48 h, read-out: Activity
[28] = tested on: SNB-19; test: Growth inhibition of human SNB19 cells assessed as cell growth at 10 uM incubated for 48 hrs by sulforhodamine B assay relative to control; type: functional; conditions: SNB-19, 48 h, read-out: Activity
[29] = tested on: PC-3; test: Growth inhibition of human PC3 cells assessed as cell growth at 10 uM incubated for 48 hrs by sulforhodamine B assay relative to control; type: functional; conditions: PC-3, 48 h, read-out: Activity
[30] = tested on: NCI/ADR-RES; test: Growth inhibition of human NCI/ADR-RES cells assessed as cell growth at 10 uM incubated for 48 hrs by sulforhodamine B assay relative to control; type: functional; conditions: read-out: Activity
[31] = tested on: Hs-578T; test: Growth inhibition of human Hs578T cells assessed as cell growth at 100 uM incubated for 48 hrs by sulforhodamine B assay relative to control; type: functional; conditions: read-out: Activity
[32] = tested on: MDA-MB-435; test: Growth inhibition of human MDA-MB-435 cells assessed as cell growth at 0.1 uM incubated for 48 hrs by sulforhodamine B assay relative to control; type: functional; conditions: MDA-MB-435, 48 h, read-out: Activity
[33] = read-out: LC50 (the source's name)
[34] = read-out: pLC50 (the source's name) (converted)

In the case of COc1cc(Cl)cc(-c2nn(-c3cccc(NC(=O)Nc4ccc(Cl)c(C(F)(F)F)c4)c3)cc2-c2ccncc2)c1, the growth at 10 µM [1] was -19.8%, the growth at 10 µM [2] was 2.57% and the growth at 10 µM [3] was 23.6%. For the same molecule, the growth at 100 µM [4] was -71%, the growth at 10 µM [5] was 13.8% and the growth at 10 µM [6] was -4.76%. For the same molecule, the growth at 0.1 µM [7] was 92%, the growth at 10 µM [8] was 9.1% and the growth at 10 µM [9] was 22.9%. For the same molecule, the growth at 10 µM [10] was 12.7%, the growth at 10 µM [11] was 14.6% and the growth at 1 µM [12] was 87%. It also gave a growth at 10 µM [13] of 8.78%, a growth at 10 µM [14] of 5.2% and a GI50 ([15]; read-out: GI50) of 1.23 µM. For the same molecule, the TGI ([15]; read-out: TGI) was 31.4 µM, the GI50 ([15]; read-out: pGI50 (converted)) was 1.23 µM and the growth at 1 µM [16] was 75%. For the same molecule, the growth at 10 µM [17] was -29.9%, the GI50 ([18]; read-out: GI50) was 2.12 µM and the CC50 [18, 33] was over 100 µM. The TGI ([18]; read-out: TGI) was 63.2 µM, the GI50 ([18]; read-out: pGI50 (converted)) was 2.14 µM and the CC50 [18, 34] was over 100 µM. It also gave a TGI ([18]; read-out: pTGI (converted)) of 6.31 µM, a growth at 0.01 µM [19] of 96% and a growth at 10 µM [20] of 0.3%. For the same molecule, the growth at 10 µM [21] was -9.18%, the growth at 10 µM [22] was -9.59% and the growth at 10 µM [23] was -22.6%. For the same molecule, the growth at 10 µM [24] was 9.81%, the growth at 10 µM [25] was 3.99% and the pIC50 [26] was 6.40. It also gave a GI50 ([26]; read-out: GI50) of 0.402 µM, a CC50 [26, 33] of over 100 µM and a TGI ([26]; read-out: TGI) of 20.7 µM. It also gave a GI50 ([26]; read-out: pGI50 (converted)) of 0.398 µM, a CC50 [26, 34] of over 100 µM and a TGI ([26]; read-out: pTGI (converted)) of 2.09 µM. It also gave a growth at 10 µM [27] of -48.3%, a growth at 10 µM [28] of 28.1% and a growth at 10 µM [29] of -13%. The growth at 10 µM [30] was 6.07%, the growth at 100 µM [31] was -6% and the growth at 0.1 µM [32] was 93%.
